Results published in patent publication US20040048816A1, “Restenosis treatment” (priority 2000, published 2004).

Columns and labels:
[1] = system: primary human coronary smooth muscle cells; test: Flow cytometry of apoptosis in cultured SMCs (FITC-Annexin V / PI double staining); format: cell-based
Procedure: The effect of IFNγ on the survival of cultured proliferating SMCs was analyzed by flow cytometry. For this reason primary human coronary smooth muscle cells were obtained from CellSystems (Germany) and were grown in Smooth muscle cell growth medium (CellSystems) containing 5% fetal calf serum (CellSystems) at 37° C. in a humidified atmosphere of 5% CO2. SMCs were used between passages 2 and 4. Treatment with 1000 U/ml rh-IFNγ (R&D Systems) was performed for 16 h. For induction of cell death, SMCs were incubated at 37° C. for 1 h in HBSS containing 100 μmol/l H2O2 and 100 μmol/l ferrous sulfate. Afterwards the cells were further cultured in freshly prepared culture medium for 8 h. Cells were labelled with FITC-labelled Annexin V (Roche Diagnostics) and propidium iodide (PI) according to the manufacturer's instructions. 10^4 events were analyzed with a flow cytometer (Becton Dickinson).

[2] = system: human coronary artery smooth muscle cells (CASMC); test: Transcriptome analysis (cDNA arrays) of treated cultured CASMC; format: cell-based; conditions: 1000 U/ml IFN-γ, 16 hours, 37° C.
Procedure: To adapt the transcriptional profile of cultured human coronary artery smooth muscle cells (CASMC) (Clonetics) to that of neointima, CASMC were stimulated with IFN-g and performed transcriptome analysis as described above. CASMC were cultured as described in the manufacter's manual in growth medium until 50% confluency was reached. Afterwards cells were stimulated with 1000 U/ml IFN-γ (R&D, Germany) for 16 hours at 37° C. Cells were washed twice in PBS and RNA preparation, cDNA synthesis and amplification and transcriptome analysis was performed as described above.
As proliferating CASMC overexpress FKBP12 like neointima, this cell line can be employed as a potential surrogate cell line for neointima in respect to therapeutic effects of rapamycin. Therefore, in a first step, CASMC were incubated with lo0ng/ml rapamycin (Sigma) for 24 hours and transcriptome analysis was performed in order to monitore the therapeutic effect.
Afterwards, microscopic specimen of in-stent restenotic tissue are incubated with rapamycin and transcriptome analysis was performed as described herein above. Transcriptome/gene expression pattern of rapamycin treated CASMC was compared to the transcriptome of rapamycin-treated neointima to measured the effectiveness of CASMC as a surrogate cell line for neointima.

[3] = biological target: T1, glycoprotein IIb/IIIa (Homo sapiens, UniProt P05106+P08514); conditions: at 30 days after surgery; versus 10.6%; cited from earlier work
T1 construct: host or cells: patients in clinical trials (endogenous protein)

Substance	spontaneous apoptosis (apoptotic cells) ([1]; SMCs after 1000 U/ml rh-IFNγ for 16 h, untreated 10%)	number of apoptotic cells after induction of apoptosis with H2O2 ([1]; SMCs, 1000 U/ml rh-IFNγ 16 h, then 100 μmol/l H2O2, without IFNγ 54%)	gene expression pattern of CASMCs after incubation [2]	death rate, myocardial infarction and/or target vessel vascularization [3]
IFNγ: recombinant human interferon γ (R&D Systems), a cytokine mainly produced by T-lymphocytes	6%	27%	neointima-specific IFN-γ gene expression pattern could be generated	–
abciximab: monoclonal antibody recognizing glycoprotein IIb/IIIa	–	–	–	5.3%
